# Data taken from publication PMC12362783 (Advanced Science, 2025).
# Key:
# PARP1 = PARP1 (Homo sapiens, UniProt P09874); assay: PARP enzymatic inhibition ELISA (PARP1); format: biochemical; conditions: n = 3, mean ± SD
# MCF‐10A = assay: Cell growth inhibition, normal breast cell line; format: cell-based
# Protocol: (§1) Growth viability was determined by the CellTiter‐Glo luminescent viability assay (Promega) 5 days after drug treatment. Cell viability was measured immediately after dosing (Day 0) and after 5 days of incubation using CellTiter‐Glo (CTG, Promega, G7573). Relative viability was calculated by normalizing the raw luminescence counts of the treated groups to those of the DMSO control groups. IC₅₀ values were calculated using sigmoidal dose‐response curve fitting with GraphPad Prism 9.0 software.
# DNA‐PK = DNA‐PK (Homo sapiens, UniProt P78527); assay: PIKK family kinase selectivity; format: biochemical
# PI3Kα = PI3Kα (Homo sapiens, UniProt P42336); assay: PIKK family kinase selectivity; format: biochemical
# [1] = test system: TNBC cells (MDA‐MB‐231, MDA‐MB‐468, MDA‐MB‐436); assay: Anti‐proliferative activity across three TNBC cell lines (summary); format: cell-based; conditions: read-out: IC50 range across three TNBC cell lines
# Protocol: as §1, with “Cells were grown at 37 °C, under 95% air and 5% CO₂ until they reached about 70% confluence and were subcultured at least twice before the experiment. Cells were seeded at a density of 1000 cells/well in two 384‐well white plates, and the plates were placed in a 5% CO₂ incubator overnight. Growth” for “Growth”
# MDA‐MB‐231 cells = assay: Colony formation assay; format: cell-based; conditions: 1.0 µM, 10 days, vs AZD6738, Olaparib alone or combination
# Protocol: (§2) The colony formation assay was performed with cells seeded in 6‐well plates (10 000 cells/well). After 10 days, cells were fixed with methanol and stained with crystal violet. The number of colonies was counted. Data represent the means ± SD from 3 independent experiments performed in triplicate wells.
# MDA‐MB‐468 cells = assay: Colony formation assay; format: cell-based; conditions: 1.0 µM, 10 days, vs AZD6738, Olaparib alone or combination
# Protocol: as §2
# [2] = test system: MDA‐MB‐468 xenograft tumors; assay: Immunohistochemistry staining of xenograft tumors; format: in vivo, mice
# Protocol: The isolated tumor tissue was fixed in 4% paraformaldehyde for 24 h, dehydrated, embedded, and sliced. After deparaffinization, Ki67 (GB121141‐50, Servicebio), γH2AX (GB111841‐50, Servicebio), CD8 (GB15068‐50, Servicebio), or Cleaved‐caspase‐3 antibody (CST#9661) were incubated at 4 °C overnight, rinsed three times with PBS, and incubated with the secondary antibody. A DAB substrate solution was applied to the slide sections to reveal the antibody staining color. The tissue slide was dehydrated four times with alcohol. The tissue slides were then cleared three times in xylene and mounted with a mounting solution. The mounted slides could be stored at room temperature indefinitely. The immunohistochemical images were obtained under the microscope (Nikon DS‐Ri1).
# [3] = Oral bioavailability (statement, no method); format: in vivo; conditions: preclinical models; necessitates I.P. delivery
# PI3Kα, sequence (P42336 whole entry, species assumed): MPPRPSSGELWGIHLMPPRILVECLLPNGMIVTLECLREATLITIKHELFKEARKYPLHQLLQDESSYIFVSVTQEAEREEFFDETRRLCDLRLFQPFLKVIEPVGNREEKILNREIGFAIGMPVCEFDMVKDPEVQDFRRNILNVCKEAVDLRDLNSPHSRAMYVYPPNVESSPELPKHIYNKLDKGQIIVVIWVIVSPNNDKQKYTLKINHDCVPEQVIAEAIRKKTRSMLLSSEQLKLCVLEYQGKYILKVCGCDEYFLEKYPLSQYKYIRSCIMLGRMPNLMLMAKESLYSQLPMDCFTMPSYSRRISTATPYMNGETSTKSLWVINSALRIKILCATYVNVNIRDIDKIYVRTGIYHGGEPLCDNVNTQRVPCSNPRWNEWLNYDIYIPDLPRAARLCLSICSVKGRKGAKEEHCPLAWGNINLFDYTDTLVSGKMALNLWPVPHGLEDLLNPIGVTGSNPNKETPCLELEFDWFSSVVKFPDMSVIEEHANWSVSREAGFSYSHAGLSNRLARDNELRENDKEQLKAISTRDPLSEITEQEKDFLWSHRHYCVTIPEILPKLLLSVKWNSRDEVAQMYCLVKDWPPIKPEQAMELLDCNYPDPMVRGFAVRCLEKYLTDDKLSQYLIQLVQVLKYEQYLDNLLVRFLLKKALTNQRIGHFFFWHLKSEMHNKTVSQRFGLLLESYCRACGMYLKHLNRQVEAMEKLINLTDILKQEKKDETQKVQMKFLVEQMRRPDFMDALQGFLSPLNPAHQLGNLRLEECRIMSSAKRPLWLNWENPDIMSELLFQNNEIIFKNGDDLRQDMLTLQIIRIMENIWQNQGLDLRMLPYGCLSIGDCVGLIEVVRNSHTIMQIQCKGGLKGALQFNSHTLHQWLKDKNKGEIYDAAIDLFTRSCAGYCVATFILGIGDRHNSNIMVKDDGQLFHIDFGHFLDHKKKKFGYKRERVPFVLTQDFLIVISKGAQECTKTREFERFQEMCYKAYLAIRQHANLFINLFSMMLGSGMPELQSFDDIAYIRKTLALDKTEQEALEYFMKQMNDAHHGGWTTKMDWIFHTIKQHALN
# PI3Kα, sequence (P27986 whole entry partner, species assumed): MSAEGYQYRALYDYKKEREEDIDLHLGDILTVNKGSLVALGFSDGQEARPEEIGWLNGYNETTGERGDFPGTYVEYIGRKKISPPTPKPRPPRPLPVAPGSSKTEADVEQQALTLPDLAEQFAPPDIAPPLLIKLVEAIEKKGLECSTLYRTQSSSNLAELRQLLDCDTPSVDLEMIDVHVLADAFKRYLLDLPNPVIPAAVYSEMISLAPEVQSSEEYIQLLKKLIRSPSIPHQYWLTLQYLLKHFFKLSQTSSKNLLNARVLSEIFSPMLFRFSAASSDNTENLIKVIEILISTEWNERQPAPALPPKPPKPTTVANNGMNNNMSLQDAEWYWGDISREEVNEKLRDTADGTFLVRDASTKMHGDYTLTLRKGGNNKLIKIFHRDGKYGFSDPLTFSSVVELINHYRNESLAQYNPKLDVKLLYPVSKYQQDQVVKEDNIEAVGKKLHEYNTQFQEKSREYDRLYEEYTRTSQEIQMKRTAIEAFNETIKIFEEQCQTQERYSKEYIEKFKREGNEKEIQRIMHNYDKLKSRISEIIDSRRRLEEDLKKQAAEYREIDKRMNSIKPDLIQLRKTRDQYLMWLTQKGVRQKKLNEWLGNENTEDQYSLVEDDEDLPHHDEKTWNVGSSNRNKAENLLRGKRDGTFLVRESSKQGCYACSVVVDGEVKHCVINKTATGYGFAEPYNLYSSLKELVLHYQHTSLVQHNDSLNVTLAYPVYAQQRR
# PARP1, sequence (P09874 whole entry): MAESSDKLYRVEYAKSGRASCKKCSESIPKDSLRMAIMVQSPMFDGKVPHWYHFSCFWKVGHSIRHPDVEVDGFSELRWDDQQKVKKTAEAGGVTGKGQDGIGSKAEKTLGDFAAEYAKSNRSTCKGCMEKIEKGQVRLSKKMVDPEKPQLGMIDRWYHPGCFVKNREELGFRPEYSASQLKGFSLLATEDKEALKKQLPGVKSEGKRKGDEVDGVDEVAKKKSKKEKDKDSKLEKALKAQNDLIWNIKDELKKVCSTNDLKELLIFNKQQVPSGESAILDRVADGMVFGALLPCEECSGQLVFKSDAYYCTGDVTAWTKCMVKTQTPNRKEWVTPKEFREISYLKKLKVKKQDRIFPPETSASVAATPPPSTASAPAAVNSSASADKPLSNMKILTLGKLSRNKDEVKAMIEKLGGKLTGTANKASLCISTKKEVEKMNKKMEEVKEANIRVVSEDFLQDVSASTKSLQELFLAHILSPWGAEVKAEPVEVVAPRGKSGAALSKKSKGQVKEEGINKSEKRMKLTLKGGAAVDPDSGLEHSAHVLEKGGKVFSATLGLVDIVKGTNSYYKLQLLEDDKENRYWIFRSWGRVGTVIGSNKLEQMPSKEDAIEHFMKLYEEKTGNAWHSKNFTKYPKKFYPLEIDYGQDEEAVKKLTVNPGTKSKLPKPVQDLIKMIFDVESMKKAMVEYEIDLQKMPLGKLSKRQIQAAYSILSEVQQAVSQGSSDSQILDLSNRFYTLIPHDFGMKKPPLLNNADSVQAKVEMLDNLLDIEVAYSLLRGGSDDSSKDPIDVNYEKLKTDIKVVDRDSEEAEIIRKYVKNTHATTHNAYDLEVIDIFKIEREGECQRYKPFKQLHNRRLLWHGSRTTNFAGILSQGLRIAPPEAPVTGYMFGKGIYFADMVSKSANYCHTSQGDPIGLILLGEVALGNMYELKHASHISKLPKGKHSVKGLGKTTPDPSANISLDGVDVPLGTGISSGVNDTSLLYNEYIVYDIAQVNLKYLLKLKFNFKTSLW
structure (smiles),measurement,setting,value
"C[C@@H]1COCCN1c1cc(CNC(=O)c2ccc(C(=O)N3CCN(C(=O)c4cc(Cc5n[nH]c(=O)c6ccccc56)ccc4F)CC3)cc2)nc(-c2ccnc3[nH]ccc23)n1 [Compound B8, (R)‐4‐(4‐(2‐fluoro‐5‐((4‐oxo‐3,4‐dihydrophthalazin‐1‐yl)methyl)benzoyl)piperazine‐1‐carbonyl)‐N‐((6‐(3‐methylmorpholino)‐2‐(1H‐pyrrolo[2,3‐b]pyridin‐4‐yl)pyrimidin‐4‐yl)methyl) benzamide]",IC50,PARP1,0.38 ± 0.08 nM
same,inhibition at 30 µM,"MCF‐10A; Homo sapiens, MCF-10A, @30 µM, read-out: MCF‐10A inhibitory rate at certain concentration",17%
same,inhibitory activity against normal cells,MCF‐10A; MCF‐10A,minimal inhibitory activity against normal cells
same,IC50,DNA‐PK,> 5000 nM
same,IC50,PI3Kα,> 2500 nM
same,IC50,[1],9 to 1890 nM
same,colony formation rate,MDA‐MB‐231 cells,significantly greater inhibitory effect on the colony formation rate
same,colony formation rate,MDA‐MB‐468 cells,significantly greater inhibitory effect on the colony formation rate
same,CD8 expression in tumor tissues (IHC),[2],increased the levels of CD8 expression
same,"Ki67, γH2AX and cleaved‐caspase 3 expression in tumors (IHC)",[2],decreased Ki67 expression and increased γH2AX and cleaved‐caspase 3 expression
same,oral bioavailability,[3],poor oral bioavailability
